These results are taken from ChEMBL document CHEMBL2406999, “Vialinin A is a ubiquitin-specific peptidase inhibitor” (Bioorg Med Chem Lett, 2013).

Assay [1] addresses T1, Ubiquitin carboxyl-terminal hydrolase 5 (Homo sapiens, UniProt P45974).
T1 sequence (P45974 whole entry): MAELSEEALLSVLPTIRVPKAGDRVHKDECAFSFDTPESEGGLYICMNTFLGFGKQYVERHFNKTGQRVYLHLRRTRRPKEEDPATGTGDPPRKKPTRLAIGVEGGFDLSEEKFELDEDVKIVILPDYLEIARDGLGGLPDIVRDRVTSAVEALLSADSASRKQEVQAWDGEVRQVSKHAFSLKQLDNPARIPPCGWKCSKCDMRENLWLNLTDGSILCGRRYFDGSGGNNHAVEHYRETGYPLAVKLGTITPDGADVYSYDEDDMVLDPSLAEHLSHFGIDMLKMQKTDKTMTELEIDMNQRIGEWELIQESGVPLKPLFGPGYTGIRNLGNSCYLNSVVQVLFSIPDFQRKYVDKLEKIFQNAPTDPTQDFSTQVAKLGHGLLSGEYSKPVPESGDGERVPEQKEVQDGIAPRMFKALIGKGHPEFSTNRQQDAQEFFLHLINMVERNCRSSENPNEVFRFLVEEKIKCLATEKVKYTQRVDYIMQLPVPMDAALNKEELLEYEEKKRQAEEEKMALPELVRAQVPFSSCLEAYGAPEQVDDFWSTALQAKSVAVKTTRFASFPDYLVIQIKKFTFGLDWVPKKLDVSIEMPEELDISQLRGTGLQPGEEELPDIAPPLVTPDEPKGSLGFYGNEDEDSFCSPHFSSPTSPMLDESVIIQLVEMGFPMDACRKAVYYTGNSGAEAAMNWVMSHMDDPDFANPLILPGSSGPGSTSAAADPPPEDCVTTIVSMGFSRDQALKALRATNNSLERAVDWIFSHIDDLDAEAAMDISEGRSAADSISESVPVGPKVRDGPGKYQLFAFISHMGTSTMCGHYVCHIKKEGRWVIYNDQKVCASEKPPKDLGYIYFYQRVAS
Put plainly: Competitive inhibition of wild type human USP5 expressed in Escherichia coli BL21(DE3) using Ub-AMC as substrate.

Assay [2] concerns the target Calpain1/2 (Homo sapiens) (UniProt P17655+P07384). Kind of assay: Inhibition of calpain1/2 (unknown origin) using Suc-LLVY-AMC as substrate at 6.3 uM after 20 mins by fluorometric analysis. Type of assay: protein assay.
Assay [3] concerns RBL-2H3. Put plainly: Binding affinity to USP5 in rat RBL2H3 cell extracts at 10 to 40 uM by SDS-PAGE analysis.
In assay [4] the target is T2, Ubiquitin carboxyl-terminal hydrolase 8 (Homo sapiens) (UniProt P40818).
T2 sequence (whole entry): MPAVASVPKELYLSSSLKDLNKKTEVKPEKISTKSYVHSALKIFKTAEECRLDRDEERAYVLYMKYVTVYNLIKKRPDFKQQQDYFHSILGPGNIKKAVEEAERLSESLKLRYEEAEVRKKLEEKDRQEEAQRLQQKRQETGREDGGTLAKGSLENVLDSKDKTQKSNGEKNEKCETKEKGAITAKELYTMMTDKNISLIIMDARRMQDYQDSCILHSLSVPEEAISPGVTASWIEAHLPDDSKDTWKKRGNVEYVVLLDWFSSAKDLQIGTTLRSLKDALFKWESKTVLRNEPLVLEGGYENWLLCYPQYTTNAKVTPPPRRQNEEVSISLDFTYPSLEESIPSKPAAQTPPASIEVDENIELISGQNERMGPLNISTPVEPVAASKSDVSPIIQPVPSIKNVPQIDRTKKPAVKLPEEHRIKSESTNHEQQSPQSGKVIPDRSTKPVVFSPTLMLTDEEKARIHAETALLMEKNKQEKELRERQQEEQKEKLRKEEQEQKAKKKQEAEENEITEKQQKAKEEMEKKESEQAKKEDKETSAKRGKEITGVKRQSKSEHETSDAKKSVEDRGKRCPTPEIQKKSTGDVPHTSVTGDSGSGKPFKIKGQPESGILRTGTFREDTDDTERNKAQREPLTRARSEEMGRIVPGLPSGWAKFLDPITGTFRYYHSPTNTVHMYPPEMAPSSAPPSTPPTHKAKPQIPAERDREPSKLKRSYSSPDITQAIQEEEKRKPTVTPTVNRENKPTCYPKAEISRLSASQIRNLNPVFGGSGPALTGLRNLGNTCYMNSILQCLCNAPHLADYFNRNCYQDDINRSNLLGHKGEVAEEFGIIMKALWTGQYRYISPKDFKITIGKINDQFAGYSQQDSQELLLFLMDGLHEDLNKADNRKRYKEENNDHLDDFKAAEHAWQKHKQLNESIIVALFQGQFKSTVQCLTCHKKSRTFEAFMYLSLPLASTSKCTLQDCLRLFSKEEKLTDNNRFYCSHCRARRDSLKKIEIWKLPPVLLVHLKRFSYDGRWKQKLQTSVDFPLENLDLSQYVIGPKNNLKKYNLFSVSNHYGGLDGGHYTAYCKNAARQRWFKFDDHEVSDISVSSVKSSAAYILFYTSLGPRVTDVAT
Put plainly: Inhibition of human USP8 using Ub-AMC as substrate at 1 to 30 uM after 60 mins by fluorometric analysis.

Assay [5] deals with T3, Ubiquitin carboxyl-terminal hydrolase 5 (Homo sapiens) (UniProt P45974).
T3 sequence (whole entry): T1 sequence (P45974 whole entry)
Put plainly: Competitive binding affinity to human recombinant USP5 after 1 hr by SDS-PAGE analysis in presence of biotin-DMT.

The target of assay [6] is T4, Ubiquitin carboxyl-terminal hydrolase isozyme L1 (Homo sapiens, UniProt P09936).
T4 sequence (P09936 whole entry): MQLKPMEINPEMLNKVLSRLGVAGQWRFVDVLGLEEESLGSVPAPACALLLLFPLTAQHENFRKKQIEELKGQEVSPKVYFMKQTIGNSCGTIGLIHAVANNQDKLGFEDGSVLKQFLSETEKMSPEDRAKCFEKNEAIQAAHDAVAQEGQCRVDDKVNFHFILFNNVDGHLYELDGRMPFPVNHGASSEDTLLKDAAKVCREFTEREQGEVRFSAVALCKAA
Kind of assay: Inhibition of human UCH-L1 using Ub-AMC as substrate after 60 mins by fluorometric analysis.

Assay [7] concerns the target T3, Ubiquitin carboxyl-terminal hydrolase 5 (Homo sapiens). Put plainly: Inhibition of wild type human USP5 expressed in Escherichia coli BL21(DE3) using K48-linked tetraubiquitin as substrate assessed as substrate hydrolysis at 10 uM after 15 mins by SDS-PAGE analysis.
Assay [8] addresses T1, Ubiquitin carboxyl-terminal hydrolase 5. Kind of assay: Inhibition of wild type human USP5 expressed in Escherichia coli BL21(DE3) using Ub-AMC as substrate after 60 mins by fluorometric analysis.
Assay [9] addresses T5, Ubiquitin carboxyl-terminal hydrolase isozyme L3 (Homo sapiens) (UniProt P15374).
T5 sequence (whole entry): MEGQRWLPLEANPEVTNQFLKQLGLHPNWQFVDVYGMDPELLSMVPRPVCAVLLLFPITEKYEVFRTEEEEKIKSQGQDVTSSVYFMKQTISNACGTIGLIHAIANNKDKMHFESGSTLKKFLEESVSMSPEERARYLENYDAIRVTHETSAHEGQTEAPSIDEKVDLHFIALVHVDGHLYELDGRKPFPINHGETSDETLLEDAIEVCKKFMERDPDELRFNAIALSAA
Put plainly: Inhibition of human UCH-L3 using Ub-AMC as substrate at 1 to 30 uM after 60 mins by fluorometric analysis.

The structures appear in SMILES notation. The source made the active and inactive calls. The rule behind the calls is not given here.

Chain of Calpain1/2 (Homo sapiens) (P07384 whole entry, looked up): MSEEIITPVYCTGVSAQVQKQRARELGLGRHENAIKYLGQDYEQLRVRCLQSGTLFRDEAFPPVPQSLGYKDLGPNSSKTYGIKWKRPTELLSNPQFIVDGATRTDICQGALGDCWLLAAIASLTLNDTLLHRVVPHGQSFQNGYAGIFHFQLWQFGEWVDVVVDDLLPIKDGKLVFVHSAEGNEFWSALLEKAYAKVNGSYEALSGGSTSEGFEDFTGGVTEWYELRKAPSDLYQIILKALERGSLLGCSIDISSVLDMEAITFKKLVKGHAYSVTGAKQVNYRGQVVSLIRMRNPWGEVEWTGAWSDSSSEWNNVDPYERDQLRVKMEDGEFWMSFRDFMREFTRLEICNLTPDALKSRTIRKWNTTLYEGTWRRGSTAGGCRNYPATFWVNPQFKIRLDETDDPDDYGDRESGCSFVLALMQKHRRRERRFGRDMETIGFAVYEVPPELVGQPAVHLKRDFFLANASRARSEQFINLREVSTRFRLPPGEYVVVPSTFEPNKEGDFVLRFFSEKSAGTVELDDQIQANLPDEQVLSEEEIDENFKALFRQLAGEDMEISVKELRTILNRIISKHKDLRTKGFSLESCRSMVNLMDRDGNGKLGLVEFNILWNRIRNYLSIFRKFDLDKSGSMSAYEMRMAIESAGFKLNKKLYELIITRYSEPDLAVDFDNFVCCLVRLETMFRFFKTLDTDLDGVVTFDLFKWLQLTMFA
Chain of Calpain1/2 (Homo sapiens) (P17655 whole entry, looked up): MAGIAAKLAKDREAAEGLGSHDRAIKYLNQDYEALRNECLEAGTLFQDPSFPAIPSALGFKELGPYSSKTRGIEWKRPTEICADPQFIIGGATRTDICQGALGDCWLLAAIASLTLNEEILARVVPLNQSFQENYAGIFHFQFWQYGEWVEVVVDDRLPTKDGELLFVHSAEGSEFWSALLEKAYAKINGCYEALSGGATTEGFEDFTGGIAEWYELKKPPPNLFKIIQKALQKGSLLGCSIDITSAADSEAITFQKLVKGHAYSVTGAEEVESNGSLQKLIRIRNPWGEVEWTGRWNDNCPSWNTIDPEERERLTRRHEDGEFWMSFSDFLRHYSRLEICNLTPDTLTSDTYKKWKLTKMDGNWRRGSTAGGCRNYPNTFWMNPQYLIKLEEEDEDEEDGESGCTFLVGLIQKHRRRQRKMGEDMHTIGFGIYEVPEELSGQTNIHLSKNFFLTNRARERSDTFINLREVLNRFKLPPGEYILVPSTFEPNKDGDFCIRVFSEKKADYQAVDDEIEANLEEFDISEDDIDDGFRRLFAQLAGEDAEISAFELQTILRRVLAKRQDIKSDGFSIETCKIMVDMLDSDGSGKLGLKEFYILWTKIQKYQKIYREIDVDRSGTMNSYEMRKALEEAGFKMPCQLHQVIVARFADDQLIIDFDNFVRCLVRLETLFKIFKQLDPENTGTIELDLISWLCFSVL

In the case of `O=C(Cc1ccccc1)Oc1c(OC(=O)Cc2ccccc2)c(-c2ccc(O)cc2)c(O)c(O)c1-c1ccc(O)cc1` [VIALININ A], the inhibitory constant (Ki) in assay [1] was 12.5 µM; in [8] it was 4 µM. Also, the inhibition result in assay [2], in [4] and in assay [9] was “inactive” in each case. For the same compound, in assay [3], the outcome was inactive. In addition, in assay [5], the outcome was Active. Moreover, the half-maximal inhibitory concentration (IC50) in assay [6] amounted to 22.3 µM; in assay [8], 5.9 µM. For the same compound, the inhibition result in assay [7] is “Active”.
